Non-standard residues stand in square brackets, D forms with d. Primed or numbered codes have the meaning given here. No end group written: not given here. *: point of attachment. Myristoyl = CCCCCCCCCCCCCC(=O)*; PEG24′ = not defined here; Nle = CCCC[C@H](N)C(=O)O

In one assay the test system is ApoB. The assay is described as follows: Knockdown of endogenous serum ApoB in mice after co-injection of masked melittin delivery peptide and ApoB siRNA-cholesterol conjugate. Type of assay: in vivo. As for the experimental part:
(§1) RNAi polynucleotide conjugates and masked melittin peptides were synthesized as described above. Six to eight week old mice (strain C57BL/6 or ICR, ˜18-20 g each) were obtained from Harlan Sprague Dawley (Indianapolis Ind.). Mice were housed at least 2 days prior to injection. Feeding was performed ad libitum with Harlan Teklad Rodent Diet (Harlan, Madison Wis.). Mice were injected with 0.2 mL solution of delivery peptide and 0.2 mL siRNA conjugates into the tail vein. For simultaneous injection of delivery peptide and siRNA, the siRNA-conjugate was added to modified peptide prior to injection and the entire amount was injected. The composition was soluble and nonaggregating in physiological conditions. Solutions were injected by infusion into the tail vein.
Mice were fasted for 4 h (16 h for rats) before serum collection by submandibular bleeding. For rats blood was collected from the jugular vein. Serum ApoB protein levels were determined by standard sandwich ELISA methods. Briefly, a polyclonal goat anti-mouse ApoB antibody and a rabbit anti-mouse ApoB antibody (Biodesign International) were used as capture and detection antibodies respectively. An HRP-conjugated goat anti-rabbit IgG antibody (Sigma) was applied afterwards to bind the ApoB/antibody complex. Absorbance of tetramethyl-benzidine (TMB, Sigma) colorimetric development was then measured by a Tecan Safire2 (Austria, Europe) microplate reader at 450 nm.
Melittin was reversibly modified with CDM-NAG as described above. The indicated amount of melittin was then co-injected with the 200 μg ApoB siRNA-cholesterol conjugate. Effect on ApoB levels were determined as described above.
Melittin was reversibly modified with CDM-NAG as described above. The indicated amount of melittin was then co-injected with 50 μg ApoB siRNA-cholesterol conjugate. Effect on ApoB levels were determined as described above.
Melittin was reversibly modified with CDM-NAG (5×) as described above. The indicated amount of melittin was then co-injected with the indicated amount of ApoB siRNA-cholesterol conjugate. Effect on ApoB levels were determined as described above.
Melittin was reversibly modified with the indicated amount of CDM-NAG as described above. 50 μg melittin was then co-injected with the 100 μg ApoB siRNA-cholesterol conjugate. Effect on ApoB levels were determined as described above.
Melittin peptides having the indicated sequence were reversibly modified with CDM-NAG (5×) as described above. The indicated amount of melittin was then co-injected with the indicated amount of ApoB siRNA-cholesterol conjugate. Effect on ApoB levels were determined as described above.
Melittin peptides containing the indicated PEG amino terminal modifications were synthesized as described above. The PEG amino terminal modified melittin peptides were then reversibly modified with 5×CDM-NAG as described above. The indicated amount of Melittin was then co-injected with the 100-200 μg ApoB siRNA-cholesterol conjugate. Effect on ApoB levels were determined as described above. Addition of PEG less than 5 kDa in size decreased toxicity of the melittin peptides.

For another assay, the system named is Factor VII. The assay is described as follows: Knockdown of plasma Factor VII activity in rats after co-injection of CDM-NAG masked melittin and cholesterol-Factor VII siRNA. In kind it is in vivo. The conditions noted are these: 5× CDM-NAG, 3 mg/kg cholesterol-Factor VII siRNA. The procedure: as §1
Wistar Han rats, 175-200 g were obtained from Charles River (Wilmington, Mass.). Rats were housed at least 1 week prior to injection. Injection volume for rats was typically 1 ml.
Plasma samples from animals were prepared by collecting blood (9 volumes) (by submandibular bleeding for mice or from jugular vein for rats) into microcentrifuge tubes containing 0.109 mol/L sodium citrate anticoagulant (1 volume) following standard procedures. F7 activity in plasma is measured with a chromogenic method using a BIOPHEN VII kit (Hyphen BioMed/Aniara, Mason, Ohio) following manufacturer's recommendations. Absorbance of colorimetric development was measured using a Tecan Safire2 microplate reader at 405 nm.
The indicated melittin was reversibly modified with 5×CDM-NAG as described above. The indicated amount of melittin, in mg per kg animal weight, was then co-injected with the 3 mg/kg cholesterol— Factor VII siRNA. Effect on Factor VII levels were determined as described above.

Where [1] appears, read: CDM-NAG (5×), amount in column 'siRNA' 400 μg.
Setting [2] is: peptide 1 (mg per kg animal weight), relative to isotonic glucose injected animals.
[3] abbreviates: CDM-NAG (5×), 50 μg peptide per mouse, 100 μg siRNA per mouse.
Where [4] appears, read: CDM-NAG (5×), 100 μg peptide per mouse, 100 μg siRNA per mouse.

Regarding “GIGAILKVLATGLPTLISWIKNKRKQ (listed as Apis florea) [Seq ID 1, Apis florea melittin]”, the “% knockdown” value in the assay on ApoB (5× CDM-NAG, 200 μg siRNA, 100 μg peptide, relative to isotonic glucose injected animals) is on record as 25%; in the assay on ApoB (5× CDM-NAG, 200 μg siRNA, 200 μg peptide), 51%; with ApoB (5× CDM-NAG, 200 μg siRNA, 400 μg peptide), 78%; in the assay on ApoB (5× CDM-NAG, 200 μg siRNA, 800 μg peptide), 87%; with ApoB (5× CDM-NAG, 200 μg siRNA, 1200 μg peptide), 94%; in the assay on ApoB (5× CDM-PEG, 200 μg siRNA, 800 μg peptide, relative to isotonic glucose injected animals), 0%. Moreover, the percent knockdown with ApoB (CDM-NAG (5×), amount in column 'siRNA' 200 μg) is recorded as 90%; with ApoB (setting [1]), 80%. Also, the “Factor VII knockdown” value in the assay on Factor VII (setting [2]) was 30; with Factor VII (peptide 3 (mg per kg)), 83; in the assay with Factor VII (peptide 10 (mg per kg)) it was 90; in the assay on Factor VII (peptide 20 (mg per kg)) it was 95.

Consider “Leu-Melittin (Seq ID 7) L form: G1L melittin peptide, L form amino acids (LIGAILKVLATGLPTLISWIKNKRKQ; melittin-like peptide derive from Apis florea)”, for which the “% knockdown” value was found to be 74% with ApoB (1× CDM-NAG, 100 μg siRNA, 50 μg peptide); 88% in the assay on ApoB (2× CDM-NAG, 100 μg siRNA, 50 μg peptide); 15% with ApoB (5× CDM-NAG, 50 μg siRNA, 25 μg peptide); 70% with ApoB (5× CDM-NAG, 50 μg siRNA, 50 μg peptide); 90% in the assay on ApoB (5× CDM-NAG, 50 μg siRNA, 100 μg peptide); 90% with ApoB (5× CDM-NAG, 50 μg siRNA, 200 μg peptide). Besides, the “% knockdown” value is on record as 90% in the assay with ApoB (5× CDM-NAG, 50 μg siRNA, 400 μg peptide) and 82% in the assay with ApoB (5× CDM-NAG, 100 μg siRNA, 50 μg peptide). The percent knockdown in the assay on ApoB (5× CDM-NAG, no PEG modification, 25 μg peptide, 100 μg siRNA) worked out at 0%; in the assay on ApoB (5× CDM-NAG, no PEG modification, 50 μg peptide, 100 μg siRNA) it was 72%; in the assay on ApoB (5× CDM-NAG, no PEG modification, 100 μg peptide, 100 μg siRNA), 94%.

Turning to “Mel-Cys (Seq ID 62): melittin peptide derivative (GIGAILKVLATGLPTLISWIKNKRKQC; C-terminal Cys; melittin-like peptide derive from Apis florea)”, the percent knockdown in the assay with ApoB (CDM-NAG (5×), 400 μg peptide per mouse, 100 μg siRNA per mouse) is 83%.

The substance “Mel-NH2 (Seq ID 116): melittin peptide derivative (GIGAILKVLATGLPTLISWIKNKRKQ-NH2)” yielded a percent knockdown with ApoB (setting [3]) of 86%.

As for “N22T Mel-NH2 (Seq ID 15): melittin peptide derivative (GIGAILKVLATGLPTLISWIKTKRKQ-NH2)”, in the assay on ApoB (setting [3]), the percent knockdown was 34%.

The substance “PEG24-GKLK-Mel G1L (Seq ID 59): melittin peptide derivative ([PEG24′]GKLKLIGAILKVLATGLPTLISWIKNKRKQ)” registered a percent knockdown with ApoB (setting [3]) of 85%.

On to “PEG(5k)-KLK-dMel G1Y (Seq ID 56): melittin peptide derivative ({PEG 5k}-KLK[dY][dI]G[dA][dI][dL][dK][dV][dL][dA][dT]G[dL][dP][dT][dL][dI][dS][dW][dI][dK][dN][dK][dR][dK][dQ])”, for which, in the assay on ApoB (CDM-NAG (5×), 300 μg peptide per mouse, 100 μg siRNA per mouse), the percent knockdown is on record as 72%.

Turning to “QKRKNKIWSILTPLGTALVKLIAGIG-NH2 [Seq ID 96]”, in the assay with ApoB (CDM-NAG (5×), siRNA 20 mg/kg), the percent knockdown is listed as 70%.

The substance “QQKKKKIWSILAPLGTTLVKLVAGIC-NH2 [Seq ID 93]” displayed a percent knockdown in the assay on ApoB (CDM-NAG (5×), siRNA 20 mg/kg) of 70%.

On to “QQRKRKIWSILAALGTTLVKLVAGIC-NH2 (also: retro-inverso, methoxy, position not given here) [Seq ID 95 Retroinverso Methoxy]”, for which the percent knockdown in the assay on ApoB (CDM-NAG (5×), amount in column 'siRNA' 30 mg/kg) was found to be 39%.

In the case of “QQRKRKIWSILAALGTTLVKLVAGIC-NH2 [Seq ID 95]”, the percent knockdown with ApoB (CDM-NAG (5×), siRNA 20 mg/kg) is listed as 91%.

The substance “QQRKRKIWSILAPLGTTLVKLVAGIC-(N-PDP-PE)-NH2 (not fully specified (some residues, C-terminus); also: D-amino acids, positions not given here) [PE = dioleolyl-phosphatidyl-ethanolamine]” displayed a percent knockdown in the assay on ApoB (CDM-NAG (5×), 400 μg peptide per mouse, 200 μg siRNA per mouse) of 55%.

As for “QQRKRKIWSILAPLGTTLVKLVAGIC-NH2 [Seq ID 92]”, the percent knockdown in the assay with ApoB (setting [1]) is 85%; in the assay with ApoB (CDM-NAG (5×), siRNA 20 mg/kg) it was 94%.

Consider “T11A, T15A, S18A (Seq ID 40): melittin peptide derivative (GIGAILKVLACGLPALIAWIKNKRKQ; melittin-like peptide derive from Apis florea)”, for which, in the assay on ApoB (setting [3]), the percent knockdown amounted to 38%.

“T11G, T15G, S18G (Seq ID 39): melittin peptide derivative (GIGAILKVLACGLPGLIGWIKNKRKQ; melittin-like peptide derive from Apis florea)” gave a percent knockdown with ApoB (setting [3]) of 32%.

Consider “YIGAILKVLATGLPTLISWIKNKRKQ (melittin-like peptide derive from Apis florea) [Seq ID 11]”, for which the entries for the “Factor VII knockdown” value with Factor VII (setting [2]) and in the assay with Factor VII (peptide 3 (mg per kg)) were 93 and 97, respectively.

As to “dimethyl-dMel I2L, I5L, T11C, I17L, I20L dMel (Seq ID 46): melittin peptide derivative (dimethyl-GLGALLKVLACGLPTLLSWLKNKRKQ; not fully specified (some residues); also: D-amino acids, positions not given here)”, the percent knockdown with ApoB (setting [4]) turned out to be 87%.

In the case of “dimethyl-dMel I2Nle, I5Nle, T11C, I17Nle, I20Nle dMel (Seq ID 47): melittin peptide derivative (G[Nle]GA[Nle]LKVLACGLPTL[Nle]SW[Nle]KNKRKQ; also: dimethyl, site not given here, D-amino acids, positions not given here)”, the percent knockdown in the assay with ApoB (setting [4]) came to 78%.

Turning to “myristoyl-CKLK-Mel G1L (Seq ID 111): melittin peptide derivative (Myristoyl-CKLKLIGAILKVLATGLPTLISWIKNKRKQ)”, in the assay with ApoB (CDM-NAG (5×), 80 μg peptide per mouse, 100 μg siRNA per mouse), the percent knockdown is given as 96%.

For the origin of these results see patent US9526796B2, “Peptide-based in vivo siRNA delivery system” (priority 2010, dated 2016).
